Where a name gives a salt, the structure may show the parent alone. Read-outs that look alike come from different tables or passages of the source.

The values below come from patent US20260069582A1, “POLYMORPH OF GLP-1R AGONIST COMPOUND, PREPARATION METHOD THEREFOR, AND USE THEREOF” (MINDRANK THERAPEUTICS (SUZHOU) NEW DRUG RESEARCH AND …, priority 2022, published 2026).

Series [1] is described as follows: Solid state stability study (purity by HPLC and crystal form change). The format is physicochemical. The conditions noted are these: for Initial purity (%): before storage, HPLC.
A short description of series [2]: Drug absorption experiment in SD rats, intragastric administration. The class given is in vivo. The conditions noted are these: for absolute bioavailability: after dose correction, based on AUC0-t. The procedure:
Blood samples were collected at different time points after administration and then separated to prepare plasma. The concentration of the drug in plasma was determined by liquid chromatography-tandem mass spectrometry, and pharmacokinetic parameters were calculated using a non-compartmental model.

Series [3] can be described thus: Drug absorption experiment in SD rats, intravenous administration. The format is in vivo. The conditions noted are these: rat, plasma, tail vein injection. The procedure: Blood samples were collected at different time points before and after administration and then separated to prepare plasma. The concentration of the drug in plasma was determined by liquid chromatography-tandem mass spectrometry, and pharmacokinetic parameters were calculated using a non-compartmental model.

The nature of series [4]: Equilibrium solubility study in biological media. The conditions noted are these: 37 °C, thermodynamic from solid, 37±2° C. The class given is physicochemical. The protocol:
In the tests, the solids were suspended in corresponding buffers to formulate suspensions (˜10 mg/mL), and the suspensions were mixed at 37±2° C. After 24 h, samples of the suspensions were taken. The supernatant was filtered, and the concentration was determined.

The nature of series [5]: Hygroscopic behavior test by dynamic vapor sorption (DVS). The class given is physicochemical. The conditions noted are these: 25° C. The text has this:
The experimental method for characterizing an acid salt or a base salt of compound I by dynamic vapor sorption (DVS) was as follows: A small amount of a powder of a polymorph of compound I was taken and placed into a precise sample tray that matches the instrument. After the sample was loaded, the sample tray was sent into the instrument for analysis. In this patent, the instrument model used in the dynamic vapor sorption analysis was Intrinsic PLUS; the experimental parameter was set as follows: A constant temperature of 25° C. was set; the mass percent change rate per unit time (dm/dt)=0.02%/min was used as a criterion for determining that a balance is achieved; the program humidity change cycle was set as follows: The initial relative humidity was 0%, and the endpoint relative humidity was 90%.

A short description of series [6]: Transformation of metastable crystal forms on drying or standing (XRPD). The class given is physicochemical. The protocol:
After being stirred at room temperature for about 3 d, the mixture was filtered under vacuum. The resulting filter cake was metastable crystal form J of compound I. The product was analyzed and characterized by XRPD (FIG. 28).
The mixture was stirred at room temperature for 16 h and filtered. The resulting filter cake was metastable crystal form K of compound I. The product was analyzed and characterized by XRPD (FIG. 29).
The mixture was stirred at room temperature for about 3 d and filtered. The filter cake was dried at 50° C. for 16 h to give metastable crystal form L of compound I. The product was analyzed and characterized by XRPD (FIG. 30).
The mixture was stirred at 5° C. for about 1 d and filtered. The resulting filter cake was metastable crystal form M of compound I. The product was analyzed and characterized by XRPD (FIG. 31).
Crystal form C of compound I was heated to 80° C. at 10° C./min to give metastable crystal form N of compound I. The product was analyzed and characterized by XRPD (FIG. 32).

Setting [7] is: 25° C./60% RH, 7 days (long-term storage).
[8] abbreviates: 40° C./75% RH, 7 days (accelerated).
Where [9] appears, read: 60° C., RH<30%, 7 days (high-temperature).

Broadly, the Cmax is the maximum level reached in the sampled fluid or tissue. The term Tmax denotes the time from dosing to the highest level. The term half-life denotes the time needed for the level to fall by half in the phase considered. What is called solubility (thermodynamic) is the concentration in solution at equilibrium with solid. With `O=C(O)c1ccc2nc(CN3CCC(Oc4cccc(COc5ccc(Cl)cc5F)n4)CC3)n(C[C@@H]3CCO3)c2c1` [Crystal form A of compound I, (S)-2-((4-((6-((4-chloro-2-fluorophenoxy)methyl)pyridin-2-yl)oxy)piperidin-1-yl)methyl)-1-(oxetan-2-ylmethyl)-1H-benzo[d]imidazole-6-carboxylic acid tromethamine salt (1:1)], the results for the “Purity (%)” value in series [1] (setting [7]), in series [1] (setting [8]) and in series [1] (setting [9]) were 99.18%, 99.17% and 98.83%, respectively. Moreover, the “Initial purity (%)” value in series [1] is listed as 99.30%. Moreover, the results for the AUC(0-t) in series [2] (5 mg/kg) and in series [3] (2 mg/kg) were 2670 ng·h/mL and 2440 ng·h/mL, respectively. For the same compound, the Cmax came to 847 ng/mL in series [2] (5 mg/kg) and 7640 ng/mL in series [3] (2 mg/kg). Also, the Tmax in series [2] (5 mg/kg) worked out at 0.25 h. The same compound gave a t1/2 in series [2] (5 mg/kg) of 3.59 h. The compound further came in with an absolute bioavailability in series [2] of 43.7%. In series [3] (2 mg/kg), the half-life is 1.88 h. For the same compound, the solubility (thermodynamic) at 24 h came out at 110 µg/mL in series [4] (FaSSIF); 450 µg/mL in series [4] (FeSSIF); 440 µg/mL in series [4] (water, H2O). Further, the “Sample weight change at 80% RH (%)” value in series [5] (DVS, 80% RH) was determined as 1.03%. In addition, the “Whether the crystal form is changed” value in series [5] (after DVS, 0-90% RH) is given as “No”.

Turning to `O=C(O)c1ccc2nc(CN3CCC(Oc4cccc(COc5ccc(Cl)cc5F)n4)CC3)n(C[C@@H]3CCO3)c2c1` [Crystal form B of compound I, (S)-2-((4-((6-((4-chloro-2-fluorophenoxy)methyl)pyridin-2-yl)oxy)piperidin-1-yl)methyl)-1-(oxetan-2-ylmethyl)-1H-benzo[d]imidazole-6-carboxylic acid tromethamine salt (1:1)], the figures for the “Purity (%)” value in series [1] (setting [7]), in series [1] (setting [8]) and in series [1] (setting [9]) were 98.74%, 98.73% and 98.67%, respectively. Also, in series [1], the “Initial purity (%)” value was determined as 98.80%.

With `O=C(O)c1ccc2nc(CN3CCC(Oc4cccc(COc5ccc(Cl)cc5F)n4)CC3)n(C[C@@H]3CCO3)c2c1` [Crystal form I of compound I, (S)-2-((4-((6-((4-chloro-2-fluorophenoxy)methyl)pyridin-2-yl)oxy)piperidin-1-yl)methyl)-1-(oxetan-2-ylmethyl)-1H-benzo[d]imidazole-6-carboxylic acid tromethamine salt (1:1)], the “Purity (%)” value in series [1] (setting [7]) was 98.41%; in series [1] (setting [8]), 98.47%; in series [1] (setting [9]), 98.48%. For the same compound, the “Initial purity (%)” value in series [1] worked out at 98.44%.

In the case of `O=C(O)c1ccc2nc(CN3CCC(Oc4cccc(COc5ccc(Cl)cc5F)n4)CC3)n(C[C@@H]3CCO3)c2c1` [Free form of compound I, (S)-2-((4-((6-((4-chloro-2-fluorophenoxy)methyl)pyridin-2-yl)oxy)piperidin-1-yl)methyl)-1-(oxetan-2-ylmethyl)-1H-benzo[d]imidazole-6-carboxylic acid], the “Purity (%)” value in series [1] (setting [7]) was 98.94%; in series [1] (setting [8]), 95.86%; in series [1] (setting [9]) it was 89.15%. Moreover, the “Initial purity (%)” value in series [1] turned out to be 98.98%. Moreover, the half-life was 2.84 h in series [2] (SD, rat, plasma, po, 5 mg/kg) and 3.89 h in series [3] (1 mg/kg). Besides, the AUC(0-t) in series [2] (SD, rat, plasma, po, 5 mg/kg, read-out: AUC0-t) was determined as 1400 ng·h/mL; in series [3] (1 mg/kg), 1280 ng·h/mL. The Cmax in series [2] (SD, rat, plasma, po, 5 mg/kg, read-out: Cmax) amounted to 600 ng/mL; in series [3] (1 mg/kg), 3200 ng/mL. Also, the Tmax in series [2] (SD, rat, plasma, po, 5 mg/kg, read-out: Tmax) worked out at 0.5 h. In series [2], this compound gave an absolute bioavailability of 21.8%.

Regarding `O=C(O)c1ccc2nc(CN3CCC(Oc4cccc(COc5ccc(Cl)cc5F)n4)CC3)n(C[C@@H]3CCO3)c2c1` [crystal form J, (S)-2-((4-((6-((4-chloro-2-fluorophenoxy)methyl)pyridin-2-yl)oxy)piperidin-1-yl)methyl)-1-(oxetan-2-ylmethyl)-1H-benzo[d]imidazole-6-carboxylic acid tromethamine salt (1:1)], in series [6] (dried at 40° C. for 16 h), the Crystal form transformation entry was “transformed to crystal form A”.

On to `O=C(O)c1ccc2nc(CN3CCC(Oc4cccc(COc5ccc(Cl)cc5F)n4)CC3)n(C[C@@H]3CCO3)c2c1` [crystal form K, (S)-2-((4-((6-((4-chloro-2-fluorophenoxy)methyl)pyridin-2-yl)oxy)piperidin-1-yl)methyl)-1-(oxetan-2-ylmethyl)-1H-benzo[d]imidazole-6-carboxylic acid tromethamine salt (1:1)], for which the Crystal form transformation entry in series [6] (dried at 50° C. for 24 h) is “transformed to crystal form A”.

With `O=C(O)c1ccc2nc(CN3CCC(Oc4cccc(COc5ccc(Cl)cc5F)n4)CC3)n(C[C@@H]3CCO3)c2c1` [crystal form L, (S)-2-((4-((6-((4-chloro-2-fluorophenoxy)methyl)pyridin-2-yl)oxy)piperidin-1-yl)methyl)-1-(oxetan-2-ylmethyl)-1H-benzo[d]imidazole-6-carboxylic acid tromethamine salt (1:1)], the Crystal form transformation entry in series [6] (dried under vacuum at room temperature for about 16 h) and in series [6] (let stand in an open flask at room temperature for about 16 h) was “transformed to crystal form D” in each case.

As for `O=C(O)c1ccc2nc(CN3CCC(Oc4cccc(COc5ccc(Cl)cc5F)n4)CC3)n(C[C@@H]3CCO3)c2c1` [crystal form N, (S)-2-((4-((6-((4-chloro-2-fluorophenoxy)methyl)pyridin-2-yl)oxy)piperidin-1-yl)methyl)-1-(oxetan-2-ylmethyl)-1H-benzo[d]imidazole-6-carboxylic acid tromethamine salt (1:1)], the Crystal form transformation result in series [6] (dried at 50° C. for 16 h) is “transformed to crystal form B”.
